In patent US20260007758A1, “SO[…]-2 RECEPTOR (SST2R) NON-PEPTIDE DRUG CONJUGATES AND USES THEREOF” (Crinetics Pharmaceuticals, Inc., priority 2024, published 2026):

How the values were obtained:
Type in all cases: cell-based
[1] = biological target: T1, human somatostatin receptor subtype 2 (Homo sapiens, UniProt P30874); experiment: Functional assay for SSTR2 agonists (HTRF cAMP); details: CHO-K1 cells stably expressing human SST2; NKH477-stimulated cAMP; 20 min at 37 C; read-out: hSST2 cAMP Avg EC50
T1 construct: expressed in transfected cells
In short: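 Agonist activity read as fall in intracellular cAMP: HTRF 665/620 nm ratio regressed to a cAMP standard curve, EC50 fitted. Stable human SSTR2 CHO-K1 cells exposed 20 min at 37 °C to compound, final concentrations typically 0-10,000 nM.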

[2] = tested on: NCI-H524 human small cell lung cancer cells; experiment: H524 assay: inhibition of cell proliferation (CellTiter Glo); details: 2 h treatment, washout, additional 70 h incubation
In short: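 Proliferation was measured by CellTiter Glo 70 h after a washout that followed a 2 h pulse of NDC. Doses were an 11-point, two-fold dilution series from 1 uM. IC50 was fitted with a four-parameter model to luminescence-based % inhibition relative to control cells.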

SST2 = biological target: T2, SST2 (Homo sapiens, UniProt P30874); experiment: PathHunter CHO-K1 SST2 Internalization Assay; details: PathHunter CHO-K1 SST2 cells; 90 min at 37 C; luminescence; read-out: Internalization EC50
T2 construct: host or cells: PathHunter CHO-K1 SST2 cells
In short: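 Four-parameter nonlinear fits of background-corrected luminescence (duplicate means) gave IC50s. NDCs were serially diluted 1:3 over 11 points from a 10 uM final top concentration and incubated 90 min at 37 C with human SST2 CHO-K1 cells plated 48 h earlier at 2500/well. Beta-Glo read-out developed 60 min at RT.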

T1 sequence (P30874 whole entry): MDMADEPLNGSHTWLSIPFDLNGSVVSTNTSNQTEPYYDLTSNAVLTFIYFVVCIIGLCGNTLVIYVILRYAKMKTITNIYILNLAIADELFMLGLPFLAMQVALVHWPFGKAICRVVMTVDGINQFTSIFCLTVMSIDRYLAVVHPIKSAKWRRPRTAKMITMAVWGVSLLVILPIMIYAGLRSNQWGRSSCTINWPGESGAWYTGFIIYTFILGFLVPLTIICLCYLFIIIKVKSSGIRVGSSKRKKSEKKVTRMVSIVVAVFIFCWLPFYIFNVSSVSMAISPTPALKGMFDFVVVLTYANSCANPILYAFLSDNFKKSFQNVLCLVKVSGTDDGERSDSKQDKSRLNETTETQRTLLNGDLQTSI
T2 sequence (P30874 whole entry): as above

Row | Structure (SMILES) | EC50 [1] [nM] | EC50 [2] [nM] | EC50 (SST2) [nM]
1 | CC[C@H](C)[C@@H]([C@@H](CC(=O)N1CCC[C@H]1[C@H](OC)[C@@H](C)C(=O)N[C@H](C)[C@@H](O)c1ccccc1)OC)N(C)C(=O)[C@@H](NC(=O)[C@H](C(C)C)N(C)C(=O)OCc1ccc(NC(=O)[C@H](CCCNC(N)=O)NC(=O)[C@@H](NC(=O)CCOCCC(=O)NCCNc2ncc(-c3cc(C)cc(F)c3)c(N3CCC(N)CC3)c2-c2nc3ccc(Cl)cc3[nH]2)C(C)C)c(O[C@@H]2O[C@H](C(=O)N(C)CCOCCC(=O)O)[C@@H](O)[C@H](O)[C@H]2O)c1)C(C)C [Compound 231] | 0.33 | 49 | 12
2 | CC[C@H](C)[C@@H]([C@@H](CC(=O)N1CCC[C@H]1[C@H](OC)[C@@H](C)C(=O)N[C@H](C)[C@@H](O)c1ccccc1)OC)N(C)C(=O)[C@@H](NC(=O)C(C(C)C)N(C)C(=O)OCc1ccc(NC(=O)[C@H](CCCNC(N)=O)NC(=O)[C@@H](NC(=O)CCOCCC(=O)NCCNc2ncc(-c3cc(C)cc(F)c3)c(N3CCC(N)CC3)c2-c2nc3ccc(Cl)cc3[nH]2)C(C)C)c(O[C@@H]2O[C@H](C(=O)N3CC(N)C3)[C@@H](O)[C@H](O)[C@H]2O)c1)C(C)C (stereo partly drawn) [Compound 232] | 0.15 | 5 | 5.2
3 | CC[C@H](C)[C@@H]([C@@H](CC(=O)N1CCC[C@H]1[C@H](OC)[C@@H](C)C(=O)N[C@H](C)[C@@H](O)c1ccccc1)OC)N(C)C(=O)[C@@H](NC(=O)[C@H](C(C)C)N(C)C(=O)OCc1ccc(NC(=O)[C@H](CCCNC(N)=O)NC(=O)[C@@H](NC(=O)CCOCCC(=O)NCCNc2ncc(-c3cc(C)cc(F)c3)c(N3CCC(N)CC3)c2-c2nc3ccc(Cl)cc3[nH]2)C(C)C)c(O[C@@H]2O[C@H](C(=O)NCCNC(=O)CCCCCO[PH](=O)OC3CCC(c4ccccc4)(c4ccccc4)CC3)[C@@H](O)[C@H](O)[C@H]2O)c1)C(C)C (stereo partly drawn) [Compound 233] | 1 | 500 | 18
4 | CC[C@H](C)[C@@H]([C@@H](CC(=O)N1CCC[C@H]1[C@H](OC)[C@@H](C)C(=O)N[C@H](C)[C@@H](O)c1ccccc1)OC)N(C)C(=O)[C@@H](NC(=O)[C@H](C(C)C)N(C)C(=O)OCc1ccc(NC(=O)[C@H](CCCNC(N)=O)NC(=O)[C@@H](NC(=O)CCOCCC(=O)NCCNc2ncc(-c3cc(C)cc(F)c3)c(N3CCC(N)CC3)c2-c2nc3ccc(Cl)cc3[nH]2)C(C)C)c(O[C@@H]2O[C@H](C(=O)NCC(=O)NCCCCCCO[PH](=O)OC3CCC(c4ccccc4)(c4ccccc4)CC3)[C@@H](O)[C@H](O)[C@H]2O)c1)C(C)C (stereo partly drawn) [Compound 234] | 0.55 | 140 | 6.6
5 | CC[C@H](C)[C@@H]([C@@H](CC(=O)N1CCC[C@H]1[C@H](OC)[C@@H](C)C(=O)N[C@H](C)[C@@H](O)c1ccccc1)OC)N(C)C(=O)[C@@H](NC(=O)C(C(C)C)N(C)C(=O)OCc1ccc(NC(=O)[C@H](CCCNC(N)=O)NC(=O)[C@@H](NC(=O)CCOCCC(=O)NCCNc2ncc(-c3cc(C)cc(F)c3)c(N3CCC(N)CC3)c2-c2nc3ccc(Cl)cc3[nH]2)C(C)C)c(O[C@@H]2O[C@H](C(=O)N3CCC(C(=O)O)CC3)[C@@H](O)[C@H](O)[C@H]2O)c1)C(C)C (stereo partly drawn) [Compound 235] | 0.11 | 14 | 4.4
6 | CC[C@H](C)[C@@H]([C@@H](CC(=O)N1CCC[C@H]1[C@H](OC)[C@@H](C)C(=O)N[C@H](C)[C@@H](O)c1ccccc1)OC)N(C)C(=O)[C@@H](NC(=O)[C@H](C(C)C)N(C)C(=O)OCc1ccc(NC(=O)[C@H](CCCNC(N)=O)NC(=O)[C@@H](NC(=O)CCOCCC(=O)NCCNc2ncc(-c3cc(C)cc(F)c3)c(N3CCC(N)CC3)c2-c2nc3ccc(Cl)cc3[nH]2)C(C)C)c(O[C@H]2[C@H](O)[C@@H](O)[C@H](O)[C@@H](C(=O)N(C)CC(=O)N(C)CC(=O)N(C)CC(=O)O)[C@H]2O)c1)C(C)C [Compound 236] | 0.14 | 9.9 | 5.1
7 | CC[C@H](C)[C@@H]([C@@H](CC(=O)N1CCC[C@H]1[C@H](OC)[C@@H](C)C(=O)N[C@H](C)[C@@H](O)c1ccccc1)OC)N(C)C(=O)[C@@H](NC(=O)[C@H](C(C)C)N(C)C(=O)OCc1ccc(NC(=O)[C@H](CCCNC(N)=O)NC(=O)[C@@H](NC(=O)c2cn(CCOCCC(=O)NCCNc3ncc(-c4cc(C)cc(F)c4)c(N4CCC(N)CC4)c3-c3nc4cc(Cl)ccc4[nH]3)nn2)C(C)C)c(O[C@@H]2O[C@H](C(=O)N3CCNCC3)[C@@H](O)[C@H](O)[C@H]2O)c1)C(C)C [Compound 237] | 0.15 | 8.2 | 8.4
8 | CC[C@H](C)[C@@H]([C@@H](CC(=O)N1CCC[C@H]1[C@H](OC)[C@@H](C)C(=O)N[C@H](C)[C@@H](O)c1ccccc1)OC)N(C)C(=O)[C@@H](NC(=O)[C@H](C(C)C)N(C)C(=O)OCc1ccc(NC(=O)[C@H](CCCNC(N)=O)NC(=O)[C@@H](NC(=O)Cn2cc(CCOCCC(=O)NCCNc3ncc(-c4cc(C)cc(F)c4)c(N4CCC(N)CC4)c3-c3nc4cc(Cl)ccc4[nH]3)nn2)C(C)C)c(O[C@@H]2O[C@H](C(=O)N3CCNCC3)[C@@H](O)[C@H](O)[C@H]2O)c1)C(C)C [Compound 238] | 0.12 | 2.9 | 4.7
9 | CC[C@@H](C)[C@H]([C@H](CC(=O)N1CCCC1[C@@H](OC)[C@H](C)C(=O)N[C@@H](C)[C@H](O)c1ccccc1)OC)N(C)C(=O)[C@H](NC(=O)[C@@H](C(C)C)N(C)C(=O)OCc1ccc(NC(=O)[C@@H](C)NC(=O)[C@H](NC(=O)[C@@H](CCCO)NC(=O)CCOCCC(=O)NCCNc2ncc(-c3cc(C)cc(F)c3)c(N3CCC(N)CC3)c2-c2nc3ccc(Cl)cc3[nH]2)C(C)C)c(O[C@H]2O[C@@H](C(=O)O)[C@H](O)[C@@H](O)[C@@H]2O)c1)C(C)C (stereo partly drawn) [Compound 239] | 0.16 | 12 | 4.9
10 | CC[C@@H](C)[C@H]([C@H](CC(=O)N1CCCC1[C@@H](OC)[C@H](C)C(=O)N[C@@H](C)[C@H](O)c1ccccc1)OC)N(C)C(=O)[C@H](NC(=O)[C@@H](C(C)C)N(C)C(=O)OCc1ccc(NC(=O)[C@H](C)NC(=O)[C@H](NC(=O)CCOCCC(=O)NCCNc2ncc(-c3cc(C)cc(F)c3)c(N3CCC(N)CC3)c2-c2nc3ccc(Cl)cc3[nH]2)C(C)C)c(O[C@H]2O[C@@H](C(=O)O)[C@H](O)[C@@H](O)[C@@H]2O)c1)C(C)C (stereo partly drawn) [Compound 240] | 0.12 | 3100 | 6
11 | CC[C@H](C)[C@@H]([C@@H](CC(=O)N1CCC[C@H]1[C@H](OC)[C@@H](C)C(=O)N[C@H](C)[C@@H](O)c1ccccc1)OC)N(C)C(=O)[C@@H](NC(=O)[C@H](C(C)C)N(C)C(=O)OCc1ccc(NC(=O)[C@@H](CCCNC(N)=O)NC(=O)[C@@H](NC(=O)CCOCCC(=O)NCCNc2ncc(-c3cc(C)cc(F)c3)c(N3CCC(N)CC3)c2-c2nc3ccc(Cl)cc3[nH]2)C(C)C)c(O[C@H]2[C@H](O)[C@@H](O)[C@H](O)[C@@H](C(=O)O)[C@H]2O)c1)C(C)C [Compound 241] | 0.19 | 2900 | 4.6
12 | CC[C@H](C)[C@@H]([C@@H](CC(=O)N1CCC[C@H]1[C@H](OC)[C@@H](C)C(=O)N[C@H](C)[C@@H](O)c1ccccc1)OC)N(C)C(=O)[C@@H](NC(=O)[C@H](C(C)C)N(C)C(=O)OCc1ccc(NC(=O)C(CCCNC(N)=O)NC(=O)C2(NC(=O)CCOCCC(=O)NCCNc3ncc(-c4cc(C)cc(F)c4)c(N4CCC(N)CC4)c3-c3nc4ccc(Cl)cc4[nH]3)CCC2)c(O[C@@H]2O[C@H](C(=O)O)[C@@H](O)[C@H](O)[C@H]2O)c1)C(C)C (stereo partly drawn) [Compound 242] | 0.045 | 70 | 2.5
